The values that follow come from PMC2861356 (Clinical cancer research : an official journal of the …, 2009).

The structures appear in SMILES notation. Read-outs that look alike come from different tables or passages of the source. Where only a bound is given, the exact number is not on record here.

Data set [1] has as its system surgically incurable GIST. Conditions: cited from earlier work.
A short description of data set [2]: clinical. Conditions: human, plasma, oral; for Cmax: Imatinib Cmax, mean ± SD; for Tmax: Imatinib tmax, median (range).
Data set [3] can be described thus: clinical. The settings on record: human, serum, oral.
In data set [4] the test system is patients with advanced imatinib-resistant gastrointestinal stromal tumors (GIST).
Data set [5] in a line: Nilotinib serum pharmacokinetics at steady-state.
Data set [6] deals with imatinib-resistant gastrointestinal stromal tumors (GIST). The data set is described as follows: Tumor response. The class given is in vivo, human.
Data set [7] has as its system GIST. Conditions: GIST after imatinib; cited from earlier work.
The mark [8] stands for this setting: Cohort 2 (n=6), imatinib 400 mg bid with nilotinib 200 mg qd, Day 8.
The mark [9] stands for this setting: 400 mg, Cohort 3 (n=7), imatinib 400 mg bid alone, Day -1.
Where [10] appears, read: 400 mg, Cohort 3 (n=7), imatinib 400 mg bid with nilotinib 400 mg qd, Day 8.

For the compound `Cc1ccc(NC(=O)c2ccc(CN3CCN(C)CC3)cc2)cc1Nc1nccc(-c2cccnc2)n1` [Imatinib], the “Imatinib Cavg, mean ± SD” value was found to be 2381 ± 1181 ng/mL (Cohort 2 (n=6), imatinib 400 mg bid alone, Day -1); 2768 ± 1039 ng/mL under setting [8]; 3594 ± 2195 ng/mL (Cohort 3 (n=7), imatinib 400 mg bid alone, Day -1); 3735 ± 1212 ng/mL (Cohort 3 (n=7), imatinib 400 mg bid with nilotinib 400 mg qd, Day 8); 3556 ± 1523 ng/mL (Cohort 4 (n=5), imatinib 400 mg bid alone, Day -1); 4285 ± 2325 ng/mL (Cohort 4 (n=5), imatinib 400 mg bid with nilotinib 400 mg bid, Day 8). Also, the “Patients with primary resistance within the first 6 months of therapy” value in data set [1] (estimated) was 5-14%. Besides, the “Median time of therapy until secondary resistance” value in data set [1] (most patients) was 2 years. The Median survival in data set [1] (surgically incurable GIST) is approximately 5 years. Besides, the Tumor control rates in data set [1] (surgically incurable GIST) is recorded as more than 80%. Moreover, the Cmax in data set [2] (400 mg, Cohort 2 (n=6), imatinib 400 mg bid alone, Day -1) was found to be 2770 ± 1140 ng/mL; in data set [2] (setting [9]), 4020 ± 2170 ng/mL; in data set [2] (setting [10]), 4200 ± 1120 ng/mL; in data set [2] (400 mg, Cohort 4 (n=5), imatinib 400 mg bid alone, Day -1) it was 4170 ± 1760 ng/mL; in data set [2] (400 mg, Cohort 4 (n=5), imatinib 400 mg bid with nilotinib 400 mg bid, Day 8), 5070 ± 2760 ng/mL; in data set [2] (setting [8]), 3370 ± 1120 ng/mL. For the same compound, the Tmax in data set [2] (setting [9]) was found to be 4.8 h; in data set [2] (setting [10]), 2.4 h; in data set [2] (setting [8]), 2.9 h.

In data set [3], `Cc1cn(-c2cc(NC(=O)c3ccc(C)c(Nc4nccc(-c5cccnc5)n4)c3)cc(C(F)(F)F)c2)cn1` [Nilotinib] gave an AUC(0-t) of 13600 ± 6620 ng·h/mL. In data set [3] (400 mg bid), the maximum concentration (Cmax) turned out to be 1640 ± 828 ng/mL and the Tmax was found to be 2.8 h. The “Discontinuation of study for death” value in data set [4] (all cohorts, n=2) worked out at 4%. In data set [4] (human, in vivo), the “Abdominal pain, overall frequency of AE” value was 36%; the “Discontinuation of study for AEs” value is recorded as 6%; the “Fatigue, overall frequency of AE” value came to 38%; the “Grade 3 elevations of AST or ALT” value is given as less than 2%. In data set [4] (human, in vivo), the “Grade 3 or 4 laboratory abnormality: hyperbilirubinemia” value was 8%; the “Grade 3 or 4 toxicities, patients overall” value is 49%; the “Nausea, overall frequency of AE” value came out at 36%; the “Post-baseline QTcF interval >480 msec” value stood at 13%. Also, in data set [4] (human, in vivo), the “QTcF >500 msec” value is listed as “no QTcF >500 msec was reported”; the “Rash, overall frequency of AE” value amounted to 40%; the “Severe AEs (grade 3 or 4): abdominal pain” value is on record as 13%. Also, in data set [4] (human, in vivo, 28 days), the “Dose deemed appropriate for Phase II studies” value was found to be 400 mg bid and the “Dose-limiting toxicity: grade 3 hyperbilirubinemia, frequency” value worked out at 6%. In addition, the Thrombocytopenia episodes entry in data set [4] (in vivo) is reported as “no episodes of thrombocytopenia”. Further, in data set [5] (combination cohorts), the “Slope of Cavg versus total nilotinib daily dose (power model)” value was 0.946 and the “Slope of Cmax versus total nilotinib daily dose (power model)” value was 0.881. Besides, the “Nilotinib AUC0-t higher than in single-agent cohort” value in data set [5] (nilotinib 400 mg bid combination cohorts, second value) was 18%. In data set [5] (nilotinib with imatinib, 4 combination cohorts), the “Nilotinib oral clearance, mean CL/F across the combination groups” value fell in the range of 19.1 to 25.6 L/h. Moreover, in data set [6] (Nilotinib 400 mg bid n=18), the “Best overall response: Complete response” value is 0 n (%), the “Best overall response: Partial response” value is on record as 1 (6) n (%), the “Best overall response: Progressive disease” value is reported as 2 (11) n (%) and the “Best overall response: Stable disease” value was 13 (72) n (%). Also, in data set [6] (Nilotinib 400 mg bid n=18), the “Best overall response: Unknown (could not be classified)” value is 1 (6) n (%); the “Progression-free survival, Kaplan-Meier rate at 4 months” value is reported as 59%; the “Progression-free survival, Kaplan-Meier rate at 6 months” value was determined as 47%; the “Progression-free survival, median” value worked out at 168 days. In addition, in data set [6] (Nilotinib 400 mg bid n=18), the “Progression-free survival, range” value was 1 to 393 days. For the same compound, the “Patients with stable disease” value in data set [6] (all cohorts) was “Thirty-eight”. The “Discontinuation of study for disease progression” value in data set [6] (all cohorts, n=32) is 60%. For the same compound, the “Progression-free survival, range” value in data set [6] (all patients) lay in the range of 1 to 393 days. The same compound yielded a Median progression-free survival in data set [6] (entire group, all patients) of 134 days. For the same compound, the “Stable disease lasting >6 months” value in data set [6] (single-agent nilotinib group, 5 patients) worked out at 28%. For the same compound, the “Stable disease lasting >4 months” value in data set [6] (single-agent nilotinib group, 9 patients) is reported as 50%.

For the compound `CCN(CC)CCNC(=O)c1c(C)[nH]c(/C=C2\C(=O)Nc3ccc(F)cc32)c1C` [Sunitinib], the “Duration of benefit of second-line therapy” value in data set [7] is on record as “approximately 9 months”.
